# According to patent US11384371B2, “Hydroxylation of branched aliphatic or aromatic substrates employing the amycolatopsis lurida cytochrome P450” (HYPHA DISCOVERY LIMITED, priority 2016, dated 2022):
# Columns and labels:
# [1] = test system: P450aluC09 fused in-frame with the reductase domain of P450BM3; experiment: Whole-cell biocatalysis by E. coli expressing P450aluC09 fused with the reductase domain of P450BM3; format: cell-based, Amycolatopsis lurida / Bacillus megaterium; details: pET21a-AluC09_BM3, E. coli BL21 Star (DE3) pLysS
# Experimental: (§1) After four hours of incubation at 27° C. and 200 rpm, 2.5 mL of induced culture was dosed with 10 μL of either bosentan or diclofenac (25 mg/mL each) in a 24-well block (Enzyscreen). The whole-cell biocatalysis reaction was allowed to further incubate for 24 hours at 30° C. and 300 rpm. The reaction was stopped with an equal amount of acetonitrile and conversion assessed by UPLC-MS analysis in a similar manner to that described in Example 7.
# The P450aluC09 was engineered to fuse in-frame to the reductase domain of P450BM3 from Bacillus megaterium in a similar manner described in Scheps et al. Microb Biotechnol. 2013; 6(6):694-707.
# Whole-cell hydroxylating activity of E. coli BL21 Star (DE3) pLysS with either pQR368bb-aluC09-aluF03 or pET21a-AluC09_BM3 plasmid were compared against the substrates bosentan and diclofenac in a similar manner described in Example 10.
# P450aluC09 [2] = experiment: Whole-cell biocatalysis (hydroxylation) by recombinant E. coli expressing P450aluC09 with redox partners; format: cell-based, Amycolatopsis lurida
# P450aluC09 [3] = experiment: Cell-free hydroxylase activity of lyophilised recombinant P450aluC09-ferredoxinaluF03-ferredoxin reductaseSCF15A, conversion by UPLC-MS; format: biochemical, Amycolatopsis lurida; details: 16-20 hours; for hydroxylase activity (conversion to hydroxylated product): 0.1 mg/ml substrate
# Experimental: Lyophilised material of recombinant P450aluC09, ferredoxinaluF03 and ferredoxin reductaseSCF15A was made as described in examples 5 and 6 and suspended in water to a final concentration of 2.9 μM of P450aluC09 and 919 UN of ferredoxin reductaseSCF15A. […] 50 mM potassium phosphate pH 7.4, 5 mM MgCl2, 0.1 mg/ml substrate compound such as bosentan (CarboSynth Ltd, UK), buparvaquone (MedChemtronica, Sweden), BIRB796 (Stratech Scientific Limited, UK), diclofenac (Sigma-Aldrich, UK), epothilone B (LC Laboratories, USA) or ritonavir (TCI, UK), tivantinib (MedChemtronica, Sweden), 2.4 μM of P450AluC09, 767 UN of ferredoxin reductaseSCF15A, 5 mM G6P, 1 mM NADP, 2 UN/ml G6PDH in a final volume of 100 μL. After 16-20 hours, reactions were extracted with an equal volume of acetonitrile, centrifuged to remove precipitated proteins and conversion assessed by UPLC-MS analysis.
# The method in Example 7 was followed except for the buffer exchange section. Four different buffers were chosen: a) 50 mM Acetate pH 5, 100 mM NaCl, 5 mM MgCl2; b) 50 mM potassium phosphate pH7.5, 5 mM MgCl2; c) 50 mM Tris pH 8, 100 mM NaCl, 5 mM MgCl2; d) 50 mM Piperidine pH11, 100 mM NaCl, 5 mM MgCl2. For each buffer condition 1.5 ml of resuspended lyophilised crude extract was exchanged using Vivaspin 20K cut off by performing 3 cycles of concentration and then dilution of the material with the new buffer. Exchanging in 50 mM potassium phosphate pH7.5, 5 mM MgCl2, the usual buffer for preparing and assessment of the enzyme preparations, provided the control for the robustness of the material during the buffer exchange process. […] Of particular note is the activity of this recombinant enzyme at such elevated pH values e.g., pH value of 11. […] Other advantages of catalysis at higher pH are the ability to directly utilise the product from a prior step resulting in such products, such as chemical synthesis, base-catalysed hydrolysis of a feedstock, or reaction product from another enzyme where increasing pH has been used to stop that reaction
# P450aluC09 [4] = experiment: Whole-cell biocatalysis (hydroxylation) by recombinant E. coli expressing P450aluC09 with redox partners; format: cell-based, Amycolatopsis lurida; remark: listed apart in the source
# Experimental: The recombinant expression strains E. coli BL21 Star (DE3) pLysS with pQR368bb-aluC09-aluF03 and E. coli BL21 Star (DE3) pLysS with p3C.1-AluC09-AluF03 were cultured in Terrific Broth media as in Example 5 and gene expression was induced by adding IPTG to reach the final concentration of 1 mM. The culture was supplemented with FeSO4 and 5′-aminolevulinic acid as in Example 5.
# as §1
# [5] = Ferredoxinfd1 from S. griseus 11796 (p3C-AluC09), E. coli BL21 Star (DE3) pLysS
# [6] = Kanamycin resistant strain (pHD02-AluC09-AluF03), E. coli BL21 Star (DE3) pLysS
# [7] = host E. coli BL21 (DE3) pLysS, pQR368bb-aluC09-aluF03
# [8] = host E. coli BL21 (DE3), pQR368bb-aluC09-aluF03
# [9] = host E. coli BL21 Star (DE3), pQR368bb-aluC09-aluF03
# [10] = Ampicillin resistant strain (pQR368bb-aluC09-aluF03), E. coli BL21 Star (DE3) pLysS
# [11] = High copy number strain (p3C.1-AluC09-AluF03), E. coli BL21 Star (DE3) pLysS, 24 hours 30° C.
# [12] = Medium copy number strain (pQR368bb-aluC09-aluF03), E. coli BL21 Star (DE3) pLysS, 24 hours 30° C.
# [13] = Native ferredoxinaluF03 (p3C.1-AluC09-AluF03), E. coli BL21 Star (DE3) pLysS
# [14] = ferredoxinaluF03 and ferredoxin reductaseSCF15A (pQR368bb-aluC09-aluF03), E. coli BL21 Star (DE3) pLysS, Table 7 comparison
# [15] = host E. coli BL21 Star (DE3) pLysS, pQR368bb-aluC09-aluF03
# [16] = pH values of 7.5 and above (pH 8-11)
Structure (SMILES),% yield of parent-derived products [1] [%],% yield of parent-derived products (P450aluC09 [2]; [5]) [%],% yield of parent-derived products (P450aluC09 [2]; [6]) [%],% yield of parent-derived products (P450aluC09 [2]; [7]) [%],% yield of parent-derived products (P450aluC09 [2]; [8]) [%],% yield of parent-derived products (P450aluC09 [2]; [9]) [%],hydroxylase activity (conversion to hydroxylated product) (P450aluC09 [3]; 10° C.) [%],hydroxylase activity (conversion to hydroxylated product) (P450aluC09 [3]; 22° C.) [%],hydroxylase activity (conversion to hydroxylated product) (P450aluC09 [3]; 27° C. (standard condition)) [%],hydroxylase activity (conversion to hydroxylated product) (P450aluC09 [3]; 37° C.) [%],% yield of parent-derived products (P450aluC09 [4]; [10]) [%],% yield of parent-derived products (P450aluC09 [4]; [11]) [%],% yield of parent-derived products (P450aluC09 [4]; [12]) [%],% yield of parent-derived products (P450aluC09 [4]; [13]) [%],% yield of parent-derived products (P450aluC09 [4]; [14]) [%],% yield of parent-derived products (P450aluC09 [4]; [15]) [%],hydroxylase activity on the substrate at reaction pH (P450aluC09 [3]; pH5 (50 mM Acetate)),hydroxylase activity on the substrate at reaction pH (P450aluC09 [3]; [16]),also measured
"O=C(O)Cc1cc(O)ccc1Nc1c(Cl)cccc1Cl [5-HO-Diclofenac, 5-hydroxydiclofenac]",<1,4.2,48.1,45.1,10.3,6.5,17,14,12,1,35.2,23.8,60.3,23.8,12.4,35.2,,,
"O=C(O)Cc1ccccc1Nc1c(Cl)cc(O)cc1Cl [4′-HO-Diclofenac, 4′-hydroxydiclofenac]",4.7,11.5,6.0,11.3,>1,1.5,14,16,21,13,7.5,8.7,27.4,60.3,46.0,7.5,,,
"O=C(O)Cc1ccccc1Nc1c(Cl)cccc1Cl [diclofenac, reference compound]",,,,,,,,,,,,,,,,,only barely detectable,remain,
COc1ccccc1Oc1c(NS(=O)(=O)c2ccc(C(C)(C)CO)cc2)nc(-c2ncccn2)nc1OCCO [HO-Bosentan],9.3,6.3,41.6,34.1,13.6,9.1,91,64,86,33,26.6,18.2,52.6,52.6,29.5,26.6,,,"% yield of parent-derived products (P450aluC09 [2]; Ferredoxin reductasecamA and ferredoxincamB from P. putida (pHD02-AluC09-PdR-PdX), E. coli BL21 (DE3)): 21.2%; % yield of parent-derived products (P450aluC09 [2]; ferredoxinaluF03 and ferredoxin reductaseSCF15A (pHD02-AluC09-AluF03), E. coli BL21 (DE3)): 27.4%; hydroxylase activity (conversion to hydroxylated product) (P450aluC09 [3]; 45° C.): 19%"
"COc1ccccc1Oc1c(NS(=O)(=O)c2ccc(C(C)(C)C)cc2)nc(-c2ncccn2)nc1OCCO [bosentan, reference compound]",,,,,,,,,,,,,,,,,only barely detectable,remain,
"CC(C)[C@H](NC(=O)N(C)Cc1csc(C(C)(C)O)n1)C(=O)N[C@@H](Cc1ccccc1)C[C@H](O)[C@H](Cc1ccccc1)NC(=O)OCc1cncs1 [ε-HO-Ritonavir, ε-HO—N-methylisopropylthiazoloylmethyl-ritonavir]",,,,,,,36,36,34,19,,,,,,,,,
